Source: PubChem BioAssay (NCI)
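GI50 is the concentration that inhibits growth by half. TGI: concentration producing complete growth inhibition.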

Tests used:
Assay in all cases: DTP human tumour cell line panel, 384-well format
[1] = test system: SW-620 colon
[2] = test system: SK-OV-3 ovarian
[3] = test system: SF-539 CNS
[4] = test system: COLO 205 colon
[5] = test system: UACC-257 melanoma
[6] = test system: HCT-15 colon
[7] = test system: MOLT-4 leukemia
[8] = test system: 786-0 renal
[9] = test system: HT29 colon
[10] = test system: MDA-MB-231 breast
[11] = test system: HOP-62 NSCLC
[12] = test system: KM12 colon
[13] = test system: U251 glioblastoma
[14] = test system: OVCAR-4 ovarian
[15] = test system: DU-145 prostate
[16] = test system: A549 NSCLC
[17] = test system: RPMI-8226 leukemia
[18] = test system: UO-31 renal
[19] = test system: EKVX NSCLC
[20] = test system: T-47D breast
[21] = test system: SF-295 CNS
[22] = test system: ACHN renal
[23] = test system: SNB-19 CNS
[24] = test system: HOP-92 NSCLC
[25] = test system: M14 melanoma
[26] = test system: OVCAR-8 ovarian
[27] = test system: NCI-H460 NSCLC
[28] = test system: UACC-62 melanoma
[29] = test system: CCRF-CEM leukemia
[30] = test system: HCT-116 colon
[31] = test system: HL-60(TB) leukemia
[32] = test system: NCI-H322M lung
[33] = test system: HS 578T breast
[34] = test system: OVCAR-3 ovarian
[35] = test system: SN12C renal
[36] = test system: IGROV1 ovarian
[37] = test system: NCI-H226 lung
[38] = test system: BT-549 breast
[39] = test system: HCC-2998 colon
[40] = test system: SK-MEL-2 melanoma
[41] = test system: NCI-H522 lung
[42] = test system: MCF7 breast
[43] = test system: PC-3 prostate
[44] = test system: LOX IMVI melanoma
[45] = test system: SK-MEL-5 melanoma
[46] = test system: A498 renal
[47] = test system: NCI-H23 lung

C[C@@H](Oc1cc(-n2cnc3ccc(CN4CCN(C)CC4)cc32)sc1C(N)=O)c1ccccc1C(F)(F)F showed a GI50 [1] of 0.34 µM, a TGI [1] of 1.51 µM and a GI50 [2] of 0.402 µM. It also gave a TGI [2] of 2.6 µM, a GI50 [3] of 0.462 µM and a TGI [3] of 1.72 µM. The GI50 [4] was 0.256 µM, the TGI [4] was 0.617 µM and the GI50 [5] was 1.15 µM. The TGI [5] was 2.37 µM, the GI50 [6] was 0.374 µM and the TGI [6] was 1.2 µM. The GI50 [7] was 0.193 µM, the TGI [7] was 0.342 µM and the GI50 [8] was 1.17 µM. For the same compound, the TGI [8] was 2.73 µM, the GI50 [9] was 0.36 µM and the TGI [9] was 1.25 µM. It also gave a GI50 [10] of 0.679 µM, a TGI [10] of 10.6 µM and a GI50 [11] of 0.465 µM. For the same compound, the TGI [11] was 2.34 µM, the GI50 [12] was 0.296 µM and the TGI [12] was 0.982 µM. It also gave a GI50 [13] of 0.689 µM, a TGI [13] of 5.08 µM and a GI50 [14] of 1.81 µM. The TGI [14] was 10.2 µM, the GI50 [15] was 0.346 µM and the TGI [15] was 1.21 µM. For the same compound, the GI50 [16] was 0.819 µM, the TGI [16] was 6.85 µM and the GI50 [17] was 0.25 µM. For the same compound, the TGI [17] was 0.734 µM, the GI50 [18] was 2.67 µM and the TGI [18] was 10.3 µM. For the same compound, the GI50 [19] was 0.734 µM, the TGI [19] was 4.19 µM and the GI50 [20] was 1.83 µM. The TGI [20] was 5.23 µM, the GI50 [21] was 1.05 µM and the TGI [21] was 9.34 µM. For the same compound, the GI50 [22] was 3.29 µM, the TGI [22] was 13.8 µM and the GI50 [23] was 1.18 µM. The TGI [23] was 15 µM, the GI50 [24] was 1.57 µM and the TGI [24] was 5.26 µM. For the same compound, the GI50 [25] was 0.573 µM, the TGI [25] was 1.86 µM and the GI50 [26] was 0.348 µM. The TGI [26] was 1.29 µM, the GI50 [27] was 0.32 µM and the TGI [27] was 0.906 µM. The GI50 [28] was 0.613 µM, the TGI [28] was 2.1 µM and the GI50 [29] was 0.18 µM. The TGI [29] was 0.329 µM, the GI50 [30] was 0.534 µM and the TGI [30] was 3.04 µM. For the same compound, the GI50 [31] was 0.203 µM, the TGI [31] was 0.352 µM and the GI50 [32] was 1.78 µM. It also gave a TGI [32] of 9.79 µM, a GI50 [33] of 1.01 µM and a TGI [33] of 2.58 µM. The GI50 [34] was 0.227 µM, the TGI [34] was 0.534 µM and the GI50 [35] was 2.89 µM. For the same compound, the TGI [35] was 15.4 µM, the GI50 [36] was 0.844 µM and the TGI [36] was 11.4 µM. For the same compound, the GI50 [37] was 3.55 µM, the TGI [37] was 17.8 µM and the GI50 [38] was 0.422 µM. The TGI [38] was 1.91 µM, the GI50 [39] was 0.595 µM and the TGI [39] was 1.89 µM. The GI50 [40] was 0.272 µM, the TGI [40] was 0.839 µM and the GI50 [41] was 0.206 µM. It also gave a TGI [41] of 0.445 µM, a GI50 [42] of 0.384 µM and a TGI [42] of 2.5 µM. It also gave a GI50 [43] of 0.804 µM, a TGI [43] of 11.4 µM and a GI50 [44] of 0.588 µM. The TGI [44] was 1.95 µM, the GI50 [45] was 0.359 µM and the TGI [45] was 1.64 µM. The GI50 [46] was 0.871 µM, the TGI [46] was 12.2 µM and the GI50 [47] was 0.384 µM. It also gave a TGI [47] of 1.68 µM.
In the case of Cc1cc(-c2nc(C(=O)Nc3cc4oc(N5CCOCC5)nc4nc3N3CC[C@@H](O)C3)co2)ccn1, the GI50 [1] is reported as 28.5 µM, the TGI [1] is reported as greater than 100 µM and the GI50 [2] is reported as 8.43 µM. The TGI [2] was 44.1 µM, the GI50 [3] was 23.2 µM and the TGI [3] was greater than 100 µM. For the same compound, the GI50 [4] was 20.4 µM, the TGI [4] was 50.2 µM and the GI50 [5] was 37.5 µM. The TGI [5] was greater than 100 µM, the GI50 [6] was 20.2 µM and the TGI [6] was greater than 100 µM. For the same compound, the GI50 [7] was 13.2 µM, the TGI [7] was 26.6 µM and the GI50 [8] was 43.4 µM. It also gave a TGI [8] greater than 100 µM, a GI50 [9] greater than 100 µM and a TGI [9] greater than 100 µM. It also gave a GI50 [10] of 36.9 µM, a TGI [10] greater than 100 µM and a GI50 [11] of 15.3 µM. For the same compound, the TGI [11] was greater than 100 µM, the GI50 [12] was 0.424 µM and the TGI [12] was greater than 100 µM. The GI50 [13] was 32.7 µM, the TGI [13] was greater than 100 µM and the GI50 [14] was 36.9 µM. The TGI [14] was greater than 100 µM, the GI50 [15] was 34.1 µM and the TGI [15] was greater than 100 µM. The GI50 [16] was 32.3 µM, the TGI [16] was greater than 100 µM and the GI50 [17] was 15.5 µM. It also gave a TGI [17] of 39.4 µM, a GI50 [18] of 33.5 µM and a TGI [18] greater than 100 µM. For the same compound, the GI50 [19] was 14.2 µM, the TGI [19] was 71.2 µM and the GI50 [20] was 11.8 µM. It also gave a TGI [20] of 88 µM, a GI50 [21] of 53.7 µM and a TGI [21] greater than 100 µM. The GI50 [22] was 19.8 µM, the TGI [22] was greater than 100 µM and the GI50 [23] was 20.4 µM. It also gave a TGI [23] greater than 100 µM, a GI50 [24] of 27.3 µM and a TGI [24] greater than 100 µM. It also gave a GI50 [25] of 27.9 µM, a TGI [25] greater than 100 µM and a GI50 [26] of 38.1 µM. The TGI [26] was greater than 100 µM, the GI50 [27] was 29.8 µM and the TGI [27] was greater than 100 µM. For the same compound, the GI50 [28] was 22.6 µM, the TGI [28] was greater than 100 µM and the GI50 [29] was 21.4 µM. The TGI [29] was 62.2 µM, the GI50 [30] was 19.4 µM and the TGI [30] was greater than 100 µM. The GI50 [31] was 17.7 µM, the TGI [31] was 44.2 µM and the GI50 [32] was 30.1 µM. It also gave a TGI [32] greater than 100 µM, a GI50 [33] of 2.37 µM and a TGI [33] of 23.4 µM. It also gave a GI50 [34] of 13.3 µM, a TGI [34] of 42 µM and a GI50 [35] of 21.5 µM. The TGI [35] was greater than 100 µM, the GI50 [36] was 11.4 µM and the TGI [36] was 35.6 µM. The GI50 [37] was 81.2 µM, the TGI [37] was greater than 100 µM and the GI50 [38] was 16.3 µM. It also gave a TGI [38] of 82.1 µM, a GI50 [39] of 21.2 µM and a TGI [39] greater than 100 µM. For the same compound, the GI50 [40] was 15.5 µM, the TGI [40] was 41.6 µM and the GI50 [41] was 4.32 µM. For the same compound, the TGI [41] was 22.7 µM, the GI50 [42] was 16.5 µM and the TGI [42] was greater than 100 µM. For the same compound, the GI50 [43] was 35.8 µM, the TGI [43] was greater than 100 µM and the GI50 [44] was 39.3 µM. For the same compound, the TGI [44] was greater than 100 µM, the GI50 [45] was 11.6 µM and the TGI [45] was 59 µM. It also gave a GI50 [46] of 12.3 µM, a TGI [46] greater than 100 µM and a GI50 [47] of 13.1 µM. It also gave a TGI [47] of 47.5 µM.
